The text below walks through data of patent publication US5587479A, “Basic derivatives of glutamic acid and aspartic acid as gastrin or cholecystokinin antagonists” (priority 1992, dated 1996).

Values after ≈ are worked out from the molar mass of the structure shown. Where two headings read alike, the source gives them in different places.

For one assay, the system named is CCK-B receptors. The following applies: guinea-pig; cited from earlier work.
Assay [1] deals with acid secretion induced by pentagastrin. Briefly: Activity against gastric secretion stimulated with pentagastrin in the anaesthetized rat. The format is in vivo. On the procedure:
The investigation of the activity against gastric secretion performed by the compounds of the invention by means of an antigastrin mechanism was carried out in vivo in anaesthetized rats with the use of male animals weighing about 200 g. Gastric secretion was stimulated with pentagastrin and the method of K. S. Lai [Gut 5, (1964), 327-341] was used, slightly modified.
After tracheotomy, the oesophagus and duodenum were cannulated. Perfusion was carried out with a tepid solution (37° C.) of 0.25 mM NaOH which was passed through the stomach by means of a peristaltic pump at a constant flow rate of 1 ml/minute. After stabilization for 20 minutes, the stimulant, dissolved in a physiological solution, was perfused for 120 minutes at a dose of 30 mcg/kg/h in a volume of 0.95 ml/hour. After perfusion for 60 minutes (the basal simulation), the product under test was administered intravenously (I.V.) as a bolus and the perfusion of the stimulant was continued for a further 60 minutes. The acid secretion was recorded continuously as a function of time.
The activity of the product was evaluated as the percentage reduction in the secreted acidity after the administration of the product compared with the basal acidity measured during the first 60 minutes of collection in the presence of pentagastrin alone.

The test system of another assay is guinea-pig ureters. Briefly: Antispastic activity in vitro: spontaneous motility of guinea-pig ureters. The following applies: Cavia porcellus, five minutes contact, 37° C. The source says: The isotonic contractions were detected by means of a force transducer and recorded. […] A given concentration of the product under test was then introduced into the bath and left in contact with the prepared specimen for five minutes, after which the ureter was washed until its own spontaneous activity was re-established.

For assay [2], the target named is T1, central CCK-B receptors (guinea pig cortical membrane) (Cavia porcellus, UniProt H0VZC5).
T1 construct: Cerebral cortices of white male guinea pigs were therefore used; from tissue; host or cells: guinea pig cerebral cortex membranes
T1 sequence (H0VZC5 1-426): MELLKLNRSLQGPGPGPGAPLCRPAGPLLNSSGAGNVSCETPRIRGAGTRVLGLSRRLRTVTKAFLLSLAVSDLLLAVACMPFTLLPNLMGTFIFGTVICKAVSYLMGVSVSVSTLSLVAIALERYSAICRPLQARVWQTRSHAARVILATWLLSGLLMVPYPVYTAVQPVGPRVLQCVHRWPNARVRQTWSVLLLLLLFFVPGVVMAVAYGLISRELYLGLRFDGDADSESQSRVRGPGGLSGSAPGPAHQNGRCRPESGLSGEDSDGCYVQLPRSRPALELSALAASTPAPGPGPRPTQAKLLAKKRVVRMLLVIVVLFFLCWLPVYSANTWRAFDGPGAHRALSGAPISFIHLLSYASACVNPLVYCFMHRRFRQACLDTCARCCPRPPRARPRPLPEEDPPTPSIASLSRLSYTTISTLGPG
Description: Inhibition of binding of (3-H)[N-methyl-N-leucine]CCK-8 to guinea pig cortical membranes (anti-CCK-B). Here is the method: Cerebral cortices of white male guinea pigs were therefore used, according to the method mentioned above, so as to obtain a membrane content/ml corresponding to about 300 mcg of proteins/mi. The membranes were incubated together with the radioactive tracer and the compounds under test for 150 minutes at 25° C. After the supernatant liquid had been discarded, the radioactivity associated with the pellet was determined with a liquid scintillator.

In assay [3] the target is T2, cholecystokinin receptors of the pancreatic cells of the rat (CCK-A) (Rattus norvegicus, UniProt P30551).
T2 construct: The pancreatic cells of the rat were prepared as described by Makovec et al; from tissue; host or cells: rat pancreatic cells
T2 sequence (P30551 1-444): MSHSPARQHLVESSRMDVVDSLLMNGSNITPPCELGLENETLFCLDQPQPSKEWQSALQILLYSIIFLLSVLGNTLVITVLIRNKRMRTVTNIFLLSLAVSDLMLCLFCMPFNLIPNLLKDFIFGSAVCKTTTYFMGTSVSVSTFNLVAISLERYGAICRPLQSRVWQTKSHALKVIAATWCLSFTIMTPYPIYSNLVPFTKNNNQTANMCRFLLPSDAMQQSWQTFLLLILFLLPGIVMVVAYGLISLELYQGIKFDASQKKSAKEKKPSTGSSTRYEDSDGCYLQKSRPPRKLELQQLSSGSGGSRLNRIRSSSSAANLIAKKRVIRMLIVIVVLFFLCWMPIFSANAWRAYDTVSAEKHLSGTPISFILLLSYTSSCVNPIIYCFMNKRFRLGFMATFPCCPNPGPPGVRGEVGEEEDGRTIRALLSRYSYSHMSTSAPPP
Briefly: Inhibition of the binding of [125-I]-[Bolton-Hunter]-CCK-8 to rat pancreatic cells (anti-CCK-A). The following applies: rat pancreatic cells. On the procedure:
The pancreatic cells of the rat were prepared as described by Makovec et al. (reference cited) so as to produce about 5×10^6 cells/mi. The cells were then incubated together with the radioactive tracer and the compounds under test for 30 minutes at 37° C.
After the supernatant liquid had been discarded, the radioactivity associated with the pellet was determined with a gamma counter (80% efficiency).

The subject of a further assay is mouse. Briefly: Anxiolytic activity in the mouse, Black and White Box test. The following applies: for TOTAL MOV.: five minutes. It counts as in vivo. On the procedure:
In order to confirm the hypothesis that the potent activity of some of the compounds of the invention against central CCK-B may be correlated with a possible anxiolytic activity, this potential activity was evaluated in the mouse with the use of the "Black and White Box test". This experimental model, which was carried out according to Costall et al. [Pharm. Biochem. Behav. 32 (1989), 777-785] used a box with dimensions of 45×21×21 (h) cm. divided into two compartments which communicated with each other by means of a 13×5 cm hole. The smaller compartment (1/3 of the total area) had black walls, whereas the larger had transparent walls and was illuminated by a lamp which was placed 20 cm above the box and supplied light at 20 W. Under the floor was an activity meter which registered the movements performed by the animal in the individual compartments. The experiment was started by placing the animal in the centre of the illuminated box; as well at its movements, the time which the animal spent in the dark and in the light and the number of times it moved between the 2 compartments were recorded for five minutes. In general, a control animal tended preferably to stay in the dark compartment where it felt better protected from an unusual enviromental situation which put it in a state of anxiety. In this experimental model ( see the reference cited above), a compound having anxiolytic activity decreased the % of movements into the dark in comparison with the total movements, increased the movements between the two light-dark compartments, and increased the % of the total time time spent in the light. The results obtained are given in Table 5 below in which the activities obtained with the compound 1 (the rectus series ) and its enantiomer 2 (sinister) tested in comparison with diazepam and the CCK-B antagonist L365-260.

For “non-sulphated [3-H][N-methyl-N-leucine]CCK-8”, the “affinity for the receptors of the cortex (CCK-B), times greater than for those of the pancreas (CCK-A)” value in the assay on CCK-B receptors was “about 4000 times”.
`CN1CCN(C(=O)CC[C@@H](NC(=O)c2cc(Cl)cc(Cl)c2)C(=O)N2CCC3(CCCC3)CC2)CC1` [Compound 1]: the ED50 in assay [1] (iv, anaesthetized rat, pentagastrin 30 mcg/kg/h, I.V. bolus, read-out: Antagonistic activity (ID50) towards acid secretion induced by pentagastrin) is 9 mg/kg. Moreover, in assay [1] (rat, pentagastrin-induced acid secretion), the “activity times higher than that of its S enantiomer, compound 2” value was “about three”. Also, in assay [1] (rat, pentagastrin-induced acid secretion, molar basis), the “times more active than CR 2194, calculated on a molar basis” value is on record as “about 1.5 times”. In assay [1] (rat, pentagastrin-induced acid secretion, weight basis), the “times more active than CR 2194” value is “about 1.2 times”. Moreover, in the assay with guinea-pig ureters (force of the contractions, read-out: IC50 (force), inhibition of the spontaneous motility of guinea-pig ureters in vitro), the IC50 came out at 23 µg/mL (≈ 43.9 µM). Further, in the assay on guinea-pig ureters (frequency of the contractions, read-out: IC50 (frequency), inhibition of the spontaneous motility of guinea-pig ureters in vitro), the IC50 was 29 µg/mL (≈ 55.4 µM). The IC50 in assay [2] (IC50, inhibition of binding of (3-H)[N-methyl-N-leucine]CCK-8 to the guinea pig cortical membrane, 150 minutes at 25° C.) is 0.7 µM. In assay [2] (guinea-pig cortical membranes), the “times less active than pentagastrin (CCK-B binding)” value was “about 200 times”, the “times more potent than the CCK-A antagonist R-lorglumide (CCK-B binding)” value is “about 10 times” and the “times more potent than the gastrin antagonist CR 2194 (CCK-B binding)” value is listed as “about 3 times”. Further, the “activity relative to its acidic parent compound CR 2194 (CCK-A binding)” value in assay [3] is recorded as “about twice”. In the assay on mouse (0.01 mg/kg IP), the “LIGHT TIME (%) TOTAL TIME” value came out at 32.3%, the “LIGHT TIME (%) TOTAL TIME: % EFF.VS CONTROL” value (from here on “LIGHT TIME … % EFF.VS CONTROL”) is 17%, the “LIGHT-DARK MOVEMENTS” value worked out at 13.2 and the “LIGHT-DARK MOVEMENTS: % EFF. VS CONTROL” value came to 3%. In the assay with mouse (0.01 mg/kg IP), the “MOV. DARK (%) TOTAL MOV.” value is reported as 50%, the “MOV. DARK (%) TOTAL MOV.: % EFF. VS CONTROL” value (from here on “MOV. DARK … % EFF. VS CONTROL”) amounted to 0% and the “TOTAL MOV.” value came out at 478. In the assay on mouse (0.1 mg/kg IP), the “LIGHT TIME (%) TOTAL TIME” value is 35.4%, the “LIGHT TIME … % EFF.VS CONTROL” value turned out to be 28%, the “LIGHT-DARK MOVEMENTS” value was 15.0 and the “LIGHT-DARK MOVEMENTS: % EFF. VS CONTROL” value stood at 17%. Further, in the assay with mouse (0.1 mg/kg IP), the “MOV. DARK (%) TOTAL MOV.” value is reported as 47%, the “MOV. DARK … % EFF. VS CONTROL” value is -5% and the “TOTAL MOV.” value is recorded as 461. Further, in the assay on mouse (1 mg/kg IP), the “LIGHT TIME (%) TOTAL TIME” value was found to be 30.5%, the “LIGHT TIME … % EFF.VS CONTROL” value worked out at 10%, the “LIGHT-DARK MOVEMENTS” value worked out at 12.9 and the “LIGHT-DARK MOVEMENTS: % EFF. VS CONTROL” value was found to be 0%. Also, in the assay with mouse (1 mg/kg IP), the “MOV. DARK (%) TOTAL MOV.” value stood at 45%, the “MOV. DARK … % EFF. VS CONTROL” value is listed as -9% and the “TOTAL MOV.” value is reported as 471. The “anxiolytic activity in the Black and White Box test (in words)” value with mouse (IP) was “active for all the parameters tested”. The “dose at which the compound is most active” value with mouse (bell-shaped curve) is 0.1 mg/kg (I.P.).

Usually IC50 stands for the concentration at which inhibition is half-maximal.
